Measured values taken from US20130089907A1, “HYDROGEN PRODUCTION METHOD USING ALCOHOL AND PHOTOSYNTHETIC BACTERIA” (priority 2010, published 2013).
Several values for one entry are separate records, joined by “and”; a condition that tells them apart may be missing. Equal entries are not always repeated. Where two headings read alike, the source gives them in different places.

Columns and labels:
[1] = system: R. sphaeroides; assay: Hydrogen production by R. sphaeroides under photosynthetic condition in the presence of alcohol (GC of gas phase); format: cell-based, Rhodobacter sphaeroides; conditions: for efficiency of hydrogen production: 10 Watts/m^2, 30° C., anaerobic
Description: For the hydrogen production, R. sphaeroides 2.4.1(ATCC BAA-808, Cohen-Bazire et al. 1956. J. Cell. Comp. Physiol. 49: 25-68) or R. sphaeroides KCTC 12085 were used. To grow the cells, basically Sistrom minimal medium [20 mM KH2PO4, 3.8 mM (NH4)2SO4, 34 mM succinate, 0.59 mM L-glutamate, 0.30 mM L-aspartate, 8.5 mM NaCl, 1.05 mM nitrilotriacetic acid, 1.2 mM MgCl26H2O, 0.23 mM CaCl27H2O, 25 µM FeSO47H2O, 0.16 M (NH4)6Mo7O244H2O, 4.7 M EDTA, 38 M ZnSO47H2O, 9.1 M MnSO4H2O, 1.6 M CuSO45H2O, 0.85 M Co(NO3)26H2O (II), 1.8 M H3BO3, 8.1 M Nicotinic acid, 1.5 M Thiamine HCl, 41 nM biotin (Sistrom, W. R, 1962. J. Gen. Microbiol. 28: 607-616)] were used with the following modifications. To optimize the activity of nitrogenase, Ammonium molybdate was replaced with the same amount of Sodium molybdate, or 7 mM of L-glutamate was used instead of ammonium sulfate, or succinate was replaced with 30 mM malate. To investigate the effect of ammonium, 2 mM Ammonium chloride was added.
R. sphaeroides was inoculated at the concentration of 10^8 CFU/ml in 10 ml of Sistrom minimal medium and incubated for 120 hrs. to test the hydrogen production at the following condition: 10 Watts/m^2, 30° C., anaerobic. To measure the hydrogen produced, the cells were incubated in a serum vial which was air tight. Before use the air in the vial was replaced with argon gas to remove oxygen. During the reaction, an aliquot of gas in the gas phase was sampled from the vial using the gas-tight syringe, which was further analyzed by a Gas Chromatography (GC, Shimadzu, Japan).
(§1) Each strain was inoculated to the medium as described above at 10^8 CFU/ml and incubated for 120 hours under the following condition: 10 Watts/m^2 of light, 30° C., and anaerobic condition and the amount of hydrogen produced was tested. The ethanol was added at 0.2 vol % and the cell growth, and hydrogen production and analysis were performed as described in Example 1.
To determine the optimal concentration and time of the alcohol added, the accumulated amount of hydrogen produced was measured in R. sphaeroides in the presence of varying amounts of ethanol from 0.01 vol % to 2 vol % (volume/volume %) by incubating them under the same condition as described in Example 1.
In addition to ethanol, other alcohols, that is, methanol (CH3OH), propanol (CH3CH2CH2OH), isopropanol [(CH3)2CHOH], butanol [CH3(CH2)2CH2OH], isoamyl alcohol, [(CH3)2CHCH2CH2OH] were tested. Under the same condition as used in Example 1, each alcohol was added to the cells at the concentration of 0.1%, 0.2%, 0.5%, or 1.0%.

[2] = system: Rhodobacter capsulatus SB1003; conditions: R. capsulatus; ethanol 0.2 vol %; modified Sistrom medium depleted with ammonium ion; 120 hours
Description: Rhodobacter capsulatus SB1003 and Rhodospirillum rubrum UR1 selected for the experiment due to their well characterization. For the growth of R. capsulatus, a modified Sistrom medium depleted with ammonium ion was used; and for the growth of R. rubrum, MG minimal medium was used as described in Lehman and Roberts. 1991. J. Bacteriol. 173: 5705-5711.
as §1

[3] = system: R. sphaeroides
Description: The wild type R. sphaeroides cells were grown under 10 Watts/m^2 of light as described in Example 1 and tested for the production of hydrogen.
The hydrogen produced was analyzed as described in Example 1.

[4] = system: nitrogenase
Description: The activity of nitrogenase was measured by the rate of ethylene (C2H4) produced using the acetylene (C2H2) as a substrate. The nitrogenase has an ability to produce hydrogen and ethylene by reducing proton (H+) and acetylene in addition to using N2 as substrate (Kern et al. 1992. Appl. Microbiol. Biotechnol. 37: 496-500). The activity of the nitrogenase was measured by incubating R. sphaeroides under the photosynthetic condition of 10 Watts/m^2 of light. 10 ml of the bacteria (10^8 CFU/ml) was placed in a serum vial (65 ml) and incubated under the light until the KU (Klett Unit) reached 150 to 200. To prevent the de novo protein synthesis during the incubation period, chloramphenicol was used at 50 μg/ml and the air in the vial was replaced with argon before use. Acetylene was injected into the vial to occupy 10% of the entire air phase using a gas-tight syringe. The cells were first incubated for 10 min without light and the reaction started under the 10 Watts/m^2 light. The amount of ethylene produced was measured by withdrawing an aliquot of the gas in the gas phase using a gas-tight syringe and by subject them to GC analysis.

[5] = concentration not stated (tested at 0.1%, 0.2%, 0.5%, or 1.0%)

CO [Methanol, methanol]
hydrogen production ([1]; alcohol at 0.1%, 0.2%, and 0.5%): increased | cell growth ([1]; alcohol at 1.0%): inhibit the cell growth | concentration with the highest effect on hydrogen production ([1]; tested at 0.1%, 0.2%, 0.5%, or 1.0%): 0.2%

CCO [ethanol]
growth of cells ([1]; 2% ethanol): inhibited the growth | hydrogen produced ([1]; 2% ethanol): very much decreased | fold increase (hydrogen produced in the presence of alcohol/in the absence of alcohol) ([1]; R. sphaeroides, ethanol 0.2 vol %, 120 hours): 2.21 fold | growth of bacteria ([1]; ethanol 0.1 vol % and 0.5 vol %, Sistrom medium containing ammonium ion): not affected | hydrogen production, times higher than the control ([1]; ethanol 0.1 vol % or 0.5 vol % vs control without ethanol): 10 times | efficiency of hydrogen production ([1]; ethanol 0.1 vol %, Sistrom medium containing ammonium ion): 5.04 mole H2/mole succinate | effect on hydrogen production by time of addition ([1]; ethanol 0.5 vol % added with inoculation (10 KU) or at 100 KU compared to addition at 300 KU, FIG. 5): higher increasing effect on the hydrogen production | efficiency of hydrogen production ([1]; ethanol 0.5 vol %, Sistrom medium containing ammonium ion): 5.72 mole H2/mole succinate | accumulated hydrogen production, wild type strain ([1]; ethanol 0.5 vol %, Sistrom medium containing ammonium ion, FIG. 3): increased hydrogen production | hydrogen production ([1]; ethanol less than 0.05%): not shown to increase | fold increase (hydrogen produced in the presence of alcohol/in the absence of alcohol) [2]: 1.5 fold and 1.53 fold | hydrogen gas producing ability remained in 2 mM ammonium ion compared to 0 mM ammonium ion ([3]; 0.2% ethanol, modified medium, FIG. 4): not less than 80% | nitrogenase activity remained in the presence of ammonium ion ([3]; after the addition of ethanol): more than 80% | activity of nitrogenase, times higher than the control ([4]; 0.2 vol % ethanol vs control without ethanol): 4 times | activity of nitrogenase ([4]; 0.2 vol % of EtOH, 10 Watts/m^2 light): 18.2 nmole KU^−1 h^−1

CC(C)CCO [isoamyl alcohol]
hydrogen production [1, 5]: decrease the hydrogen production

CC(C)O [isopropanol]
increase of hydrogen production [1, 5]: about 35%

CCCO [propanol]
concentration with the highest effect on hydrogen production [1]: 0.5% | hydrogen production [1]: increased

butanol
concentration with the highest effect on hydrogen production [1]: 0.2% | hydrogen production [1]: increased
